Reference: ChEMBL document CHEMBL3352453, “Inhibitory potency of flavonoid derivatives on influenza virus neuraminidase” (Bioorg Med Chem Lett, 2014)

Assays:
[1] = Cytotoxicity against MDCK cells; assay type: cell-based, Canis lupus familiaris; conditions: dog
[2] = Inhibition of influenza B virus (B/Brisbane/60/2008) neuraminidase using MUNANA substrate pre-incubated for 30 mins before substrate addition by fluorometric assay
[3] = Selectivity index, ratio of CC50 for MDCK cells to IC50 for influenza A virus (A/Perth/16/2009(H3N2)); assay type: functional

Compound	CC50 [1] [µM]	IC50 [2] [µM]	Ratio CC50/IC50 [3]
O=c1cc(-c2ccc(O)c(O)c2)oc2cc(O[C@@H]3O[C@H](CO)[C@@H](O)[C@H](O)[C@H]3O)cc(O)c12 [GALUTEOLIN]	> 446	57.2	>6.7
O=c1c(O[C@@H]2O[C@H](CO)[C@H](O)[C@H](O)[C@H]2O)c(-c2ccc(O)c(O)c2)oc2cc(O)cc(O)c12 [HYPEROSIDE]	> 431	88.1	>6.9
O=c1c(O[C@@H]2O[C@H](CO)[C@@H](O)[C@H](O)[C@H]2O)c(-c2ccc(O)c(O)c2)oc2cc(O)cc(O)c12 [ISOQUERCETIN]	> 431	384	>1.2
O=c1c(O)c(-c2ccc(O)cc2)oc2cc(O)cc(O)c12 [KAEMPFEROL]	581	90.8	6.8
CCOC(=O)C1=C[C@@H](OC(CC)CC)[C@H](NC(C)=O)[C@@H](N)C1 [OSELTAMIVIR]		0.0454	
C[C@@H]1O[C@@H](Oc2c(-c3ccc(O)c(O)c3)oc3cc(O)cc(O)c3c2=O)[C@H](O)[C@H](O)[C@H]1O [QUERCITRIN]	> 446	112	>4.1
C[C@@H]1O[C@@H](OC[C@H]2O[C@@H](Oc3c(-c4ccc(O)c(O)c4)oc4cc(O)cc(O)c4c3=O)[C@H](O)[C@@H](O)[C@@H]2O)[C@H](O)[C@H](O)[C@H]1O [RUTIN]	> 328	105	>3.4
